Measurements as given in the NIST ThermoML archive (doi:10.1016/j.jct.2019.02.011).

Assay: xn = mol fraction of the nth substance listed
Details: Liquid, Vibrating tube method

COC(=O)OC [dimethyl carbonate] + CCCO
mass density [kg/m3]
Details | 100 kPa | 5000 kPa | 10000 kPa | 15000 kPa | 20000 kPa | 25000 kPa | 30000 kPa | 35000 kPa | 40000 kPa
293.15 K, x1 = 0.0273 | – | – | – | 821.94 | 825.23 | 828.56 | 831.57 | 834.42 | 837.07
293.15 K, x1 = 0.0506 | – | – | – | 828.58 | 831.87 | 835.25 | 838.27 | 841.13 | 843.83
293.15 K, x1 = 0.0755 | – | – | – | 835.71 | 839.06 | 842.44 | 845.52 | 848.42 | 851.14
293.15 K, x1 = 0.1007 | – | – | – | 842.9 | 846.25 | 849.69 | 852.76 | 855.68 | 858.39
293.15 K, x1 = 0.1495 | – | – | – | 856.75 | 860.16 | 863.6 | 866.73 | 869.7 | 872.48
293.15 K, x1 = 0.2003 | – | – | – | 871.06 | 874.53 | 878.01 | 881.2 | 884.18 | 887.03
293.15 K, x1 = 0.2529 | – | – | 882.09 | 885.77 | 889.3 | 892.84 | 896.04 | 899.12 | 902.04
293.15 K, x1 = 0.2993 | – | – | 894.95 | 898.64 | 902.18 | 905.76 | 909.02 | 912.16 | 915.09
293.15 K, x1 = 0.3497 | – | – | 908.71 | 912.45 | 916.05 | 919.68 | 923 | 926.2 | 929.19
293.15 K, x1 = 0.401 | – | – | 922.59 | 926.38 | 930.03 | 933.72 | 937.09 | 940.3 | 943.36
293.15 K, x1 = 0.4509 | – | – | 936.03 | 939.87 | 943.59 | 947.28 | 950.71 | 953.97 | 957.05
293.15 K, x1 = 0.5002 | – | – | 949.24 | 953.09 | 956.87 | 960.6 | 964.04 | 967.36 | 970.51
293.15 K, x1 = 0.5498 | – | – | 962.47 | 966.32 | 970.1 | 973.84 | 977.34 | 980.72 | 983.88
293.15 K, x1 = 0.5996 | – | – | 975.61 | 979.51 | 983.36 | 987.15 | 990.65 | 994.04 | 997.26
293.15 K, x1 = 0.6499 | – | – | 988.81 | 992.77 | 996.62 | 1000.46 | 1004.03 | 1007.42 | 1010.66
293.15 K, x1 = 0.7006 | – | – | 1002.08 | 1006.04 | 1009.95 | 1013.8 | 1017.37 | 1020.81 | 1024.12
293.15 K, x1 = 0.7471 | – | – | 1014.07 | 1018.08 | 1022.06 | 1025.95 | 1029.53 | 1032.98 | 1036.36
293.15 K, x1 = 0.7989 | – | – | 1027.41 | 1031.43 | 1035.41 | 1039.31 | 1042.94 | 1046.46 | 1049.84
293.15 K, x1 = 0.8491 | – | – | 1040.37 | 1044.44 | 1048.43 | 1052.38 | 1056.08 | 1059.59 | 1063.05
293.15 K, x1 = 0.8993 | – | – | 1053.34 | 1057.42 | 1061.47 | 1065.42 | 1069.12 | 1072.65 | 1076.12
293.15 K, x1 = 0.9249 | – | – | 1059.86 | 1063.94 | 1067.99 | 1071.94 | 1075.65 | 1079.23 | 1082.7
293.15 K, x1 = 0.9489 | – | – | 1065.93 | 1070.01 | 1074.07 | 1078.02 | 1081.73 | 1085.31 | 1088.8
293.15 K, x1 = 0.9743 | – | – | 1072.35 | 1076.43 | 1080.5 | 1084.5 | 1088.21 | 1091.8 | 1095.29
293.15 K, x1 = 1 | – | – | 1078.93 | 1083.01 | 1087.08 | 1091.03 | 1094.75 | 1098.34 | 1101.84
298.15 K, x1 = 0.0273 | 807.06 | 810.99 | 814.7 | 818.11 | 821.44 | – | – | – | –
298.15 K, x1 = 0.0506 | 813.55 | 817.52 | 821.28 | 824.74 | 828.12 | – | – | – | –
298.15 K, x1 = 0.0755 | 820.52 | 824.54 | 828.31 | 831.81 | 835.25 | – | – | – | –
298.15 K, x1 = 0.1007 | 827.5 | 831.52 | 835.34 | 838.84 | 842.29 | – | – | – | –
298.15 K, x1 = 0.1495 | 841.12 | 845.19 | 849.06 | 852.61 | 856.13 | – | – | – | –
298.15 K, x1 = 0.2003 | 855.15 | 859.27 | 863.19 | 866.8 | 870.37 | – | – | – | –
298.15 K, x1 = 0.2529 | 869.54 | 873.66 | 877.64 | 881.29 | 884.88 | – | – | – | –
298.15 K, x1 = 0.2993 | 882.18 | 886.34 | 890.38 | 894.08 | 897.73 | – | – | – | –
298.15 K, x1 = 0.3497 | 895.71 | 899.93 | 904.02 | 907.77 | 911.48 | – | – | – | –
298.15 K, x1 = 0.401 | 909.36 | 913.63 | 917.77 | 921.57 | 925.35 | – | – | – | –
298.15 K, x1 = 0.4509 | 922.58 | 926.89 | 931.09 | 934.95 | 938.74 | – | – | – | –
298.15 K, x1 = 0.5002 | 935.57 | 939.93 | 944.14 | 948.04 | 951.89 | – | – | – | –
298.15 K, x1 = 0.5498 | 948.57 | 952.93 | 957.19 | 961.1 | – | – | – | – | –
298.15 K, x1 = 0.5996 | 961.54 | 965.95 | 970.21 | 974.17 | – | – | – | – | –
298.15 K, x1 = 0.6499 | 974.52 | 978.92 | 983.24 | 987.25 | – | – | – | – | –
298.15 K, x1 = 0.7006 | 987.56 | 992.01 | 996.39 | 1000.44 | – | – | – | – | –
298.15 K, x1 = 0.7471 | 999.38 | 1003.88 | 1008.26 | 1012.37 | – | – | – | – | –
298.15 K, x1 = 0.7989 | 1012.54 | 1017.09 | 1021.53 | 1025.64 | – | – | – | – | –
298.15 K, x1 = 0.8491 | 1025.27 | 1029.83 | 1034.32 | 1038.48 | – | – | – | – | –
298.15 K, x1 = 0.8993 | 1038.07 | 1042.62 | 1047.12 | 1051.28 | – | – | – | – | –
298.15 K, x1 = 0.9249 | 1044.52 | 1049.07 | 1053.57 | 1057.78 | – | – | – | – | –
298.15 K, x1 = 0.9489 | 1050.53 | 1055.08 | 1059.58 | 1063.79 | – | – | – | – | –
298.15 K, x1 = 0.9743 | 1056.89 | 1061.44 | 1065.95 | 1070.16 | – | – | – | – | –
298.15 K, x1 = 1 | 1063.45 | 1068 | 1072.51 | 1076.72 | – | – | – | – | –
